{
  "source": "BindingDB's records for patent WO2025045746",
  "about": "(695 Avenue de la Résistance, 2025)",
  "data": [
    {"target": "T1, NAD(+) hydrolase SARM1 [28-724] (UniProt Q6SZW1)", "T1 construct": "28-724", "T1 sequence (Q6SZW1 whole entry)": "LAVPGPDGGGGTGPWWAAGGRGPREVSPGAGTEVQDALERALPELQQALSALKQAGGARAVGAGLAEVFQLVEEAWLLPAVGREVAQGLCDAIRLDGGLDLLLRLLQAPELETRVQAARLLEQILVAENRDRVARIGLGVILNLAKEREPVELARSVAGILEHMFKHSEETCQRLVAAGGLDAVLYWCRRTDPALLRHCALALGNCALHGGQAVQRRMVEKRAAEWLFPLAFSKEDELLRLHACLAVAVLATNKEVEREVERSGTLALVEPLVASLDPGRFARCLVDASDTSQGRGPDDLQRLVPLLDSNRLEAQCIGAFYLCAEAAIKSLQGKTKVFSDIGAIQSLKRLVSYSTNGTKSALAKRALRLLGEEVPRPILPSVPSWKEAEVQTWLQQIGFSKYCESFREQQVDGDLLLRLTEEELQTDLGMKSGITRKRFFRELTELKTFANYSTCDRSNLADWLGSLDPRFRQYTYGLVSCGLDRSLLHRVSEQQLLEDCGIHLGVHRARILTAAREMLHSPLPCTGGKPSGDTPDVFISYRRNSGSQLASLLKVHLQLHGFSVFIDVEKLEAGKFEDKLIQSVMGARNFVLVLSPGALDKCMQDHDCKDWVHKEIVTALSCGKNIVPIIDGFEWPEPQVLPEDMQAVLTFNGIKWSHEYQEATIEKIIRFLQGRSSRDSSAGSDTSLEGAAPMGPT", "experiment": "SARM1 Inhibitory Activity", "description": "Assay reagents were prepared in 25mM HEPES pH 7.2, 50mM NaCl, 1mM EDTA and 0.0025% Tween20. […] The peak area of NAD and linear ADPR were measured by a RapidFire High Throughput Mass Spectrometry System (Agilent Technologies, Santa Clara, CA) using an API5000 triple quadrupole mass spectrometer (AB Sciex Framingham, MA). The ratio of linear ADPR to NAD peak area was then plotted against compound concentration to obtain an IC50 as fitted via non-linear regression.", "units": {"IC50": "nM"}, "values": [
      {"smiles": "O=C(c1cc(-c2ccncc2F)n[nH]1)N1CCC(c2ccc(Cl)cc2)C1", "note": "(stereo unspecified) [WO2025045746, Example 36]", "IC50": 1220},
      {"smiles": "CC1CC(c2ccccc2)C(C)N1C(=O)c1cc(-c2ccnnc2)n[nH]1", "note": "(stereo unspecified) [WO2025045746, Example 24]", "IC50": 9480},
      {"smiles": "O=C(c1cc(-c2ccnnc2)n[nH]1)N1CCC(F)(c2ccc(F)c(F)c2)C1", "note": "(stereo unspecified) [WO2025045746, Example 23]", "IC50": 2270},
      {"smiles": "O=C(c1cc(-c2ccnnc2)n[nH]1)N1C[C@H](O)[C@H](c2ccc(Cl)cc2)C1", "note": "[WO2025045746, Example 22]", "IC50": 9220},
      {"smiles": "O=C(c1cc(-c2ccncc2)n[nH]1)N1C[C@@H](O)[C@H](c2ccc(Cl)cc2)C1", "note": "[WO2025045746, Example 13]", "IC50": 624},
      {"smiles": "O=C(c1cc(-c2ccnnc2)n[nH]1)N1C[C@@H](O)[C@H](c2ccc(Cl)cc2)C1", "note": "[WO2025045746, Example 21]", "IC50": 351},
      {"smiles": "O=C(c1[nH]nc(-c2ccnnc2)c1Br)N1CC[C@@H](c2ccc(Cl)cc2)C1", "note": "[WO2025045746, Example 59]", "IC50": 1780},
      {"smiles": "O=C(c1cc(-c2ccnnc2)n[nH]1)N1C[C@H](O)[C@H](c2ccc(Cl)cc2)C1", "note": "[WO2025045746, Example 34]", "IC50": 5920},
      {"smiles": "O=C(c1cc(-c2ccnnc2)n[nH]1)N1CCC(c2ccc(Br)cc2)C1", "note": "(stereo unspecified) [WO2025045746, Example 51]", "IC50": 461},
      {"smiles": "Cc1c(-c2ccnnc2)n[nH]c1C(=O)N1CCC(c2ccc(Cl)cc2)C1", "note": "(stereo unspecified) [WO2025045746, Example 5]", "IC50": 427},
      {"smiles": "Cc1csc(C2CCN(C(=O)c3cc(-c4ccnnc4)n[nH]3)C2)c1", "note": "(stereo unspecified) [WO2025045746, Example 48]", "IC50": 7410}
    ]}
  ]
}
